Test results taken from PMC10864382, “Targeting yeast topoisomerase II by imidazo and triazoloacridinone derivatives resulting in their antifungal activity” (Scientific Reports, 2024).

Target: T1, yeast topoisomerase II (yTOPOII) (Saccharomyces cerevisiae, UniProt P06786)
T1 construct: gene TOP2; purified enzyme, commercial (Inspiralis Limited, UK)
T1 sequence (P06786 1-1428): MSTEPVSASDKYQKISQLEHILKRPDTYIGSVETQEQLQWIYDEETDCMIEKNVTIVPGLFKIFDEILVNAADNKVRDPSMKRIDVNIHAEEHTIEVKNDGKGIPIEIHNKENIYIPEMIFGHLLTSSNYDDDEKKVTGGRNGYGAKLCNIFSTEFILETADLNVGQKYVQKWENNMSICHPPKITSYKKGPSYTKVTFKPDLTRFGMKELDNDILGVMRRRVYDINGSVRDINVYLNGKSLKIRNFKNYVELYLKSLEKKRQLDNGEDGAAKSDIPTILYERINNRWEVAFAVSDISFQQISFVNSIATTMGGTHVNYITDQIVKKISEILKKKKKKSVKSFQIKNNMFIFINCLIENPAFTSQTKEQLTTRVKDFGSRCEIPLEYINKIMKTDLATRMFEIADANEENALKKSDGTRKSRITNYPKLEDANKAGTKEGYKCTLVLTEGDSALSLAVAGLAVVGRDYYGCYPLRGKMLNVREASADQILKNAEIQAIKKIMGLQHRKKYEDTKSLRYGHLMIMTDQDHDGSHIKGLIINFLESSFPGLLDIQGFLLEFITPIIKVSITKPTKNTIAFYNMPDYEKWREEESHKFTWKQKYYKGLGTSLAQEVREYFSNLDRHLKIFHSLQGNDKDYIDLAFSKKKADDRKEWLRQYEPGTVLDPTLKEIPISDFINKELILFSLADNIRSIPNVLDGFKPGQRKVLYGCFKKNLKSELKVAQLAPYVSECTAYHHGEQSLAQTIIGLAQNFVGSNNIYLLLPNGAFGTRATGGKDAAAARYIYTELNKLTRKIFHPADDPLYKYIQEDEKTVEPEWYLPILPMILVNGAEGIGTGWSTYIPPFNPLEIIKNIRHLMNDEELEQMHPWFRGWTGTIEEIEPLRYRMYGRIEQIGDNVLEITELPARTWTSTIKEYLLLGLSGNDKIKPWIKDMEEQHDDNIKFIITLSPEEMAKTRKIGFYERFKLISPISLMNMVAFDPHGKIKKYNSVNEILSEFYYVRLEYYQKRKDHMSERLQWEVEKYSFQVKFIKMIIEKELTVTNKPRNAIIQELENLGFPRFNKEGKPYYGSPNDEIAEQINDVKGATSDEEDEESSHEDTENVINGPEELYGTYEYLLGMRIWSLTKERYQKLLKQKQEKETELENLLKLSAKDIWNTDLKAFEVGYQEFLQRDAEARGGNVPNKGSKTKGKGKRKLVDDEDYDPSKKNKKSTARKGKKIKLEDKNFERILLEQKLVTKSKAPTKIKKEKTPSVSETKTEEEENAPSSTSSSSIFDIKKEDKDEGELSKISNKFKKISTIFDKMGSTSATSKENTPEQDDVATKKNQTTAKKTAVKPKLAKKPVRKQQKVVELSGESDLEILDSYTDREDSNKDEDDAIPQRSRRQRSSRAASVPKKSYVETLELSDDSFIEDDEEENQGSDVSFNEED
Experiment: gel-based relaxation of supercoiled plasmid DNA, densitometry
Assay type: biochemical
Text: gel-based relaxation of supercoiled plasmid DNA, densitometry on yeast topoisomerase II (yTOPOII)

| Structure (SMILES) | IC50 |
| --- | --- |
| COc1ccc2c(c1)c(=O)c1c(NCCCN(C)C)ccc3nnn2c31 [IKE3, 5-[-(3′-Dimethylamino)propylamino]-8-methoxy-6H-[1–3]-triazolo[4,5,l-de]acridin-6-one] | 13.2 ± 1.1 µM |
| CN(C)CCCNc1ccc2nnn3c4ccc(O)cc4c(=O)c1c23 [C-1305] | 18.2 ± 1.4 µM |
| CCN(CC)CCCNc1ccc2nnn3c4ccc(OC)cc4c(=O)c1c23 [IKE4, 5-[-(3′-Diethylamino)propylamino]-8-methoxy-6H-[1–3]-triazolo[4,5,l-de]acridin-6-one] | 13.3 ± 1.2 µM |
| Cc1ccc2c(c1)c(=O)c1c(NCCCN(C)C)ccc3nnn2c31 [IKE1, 5-[-(3′-Dimethylamino)propylamino]-8-methyl-6H-[1–3]-triazolo[4,5,l-de]acridin-6-one] | 13.4 ± 1.1 µM |
| CCN(CC)CCCNc1ccc2nnn3c4ccc(C)cc4c(=O)c1c23 [IKE2, 5-[-(3′-Diethylamino)propylamino]-8-methyl-6H-[1–3]-triazolo[4,5,l-de]acridin-6-one] | 13.3 ± 1.1 µM |
| COc1ccc2c(c1)c(=O)c1c(NCCN)ccc3ncn2c31 [IKE13, 5-[(2-aminoethyl)amino]-8-methoxy-6H-imidazo[4,5,1-de]acridin-6-one] | 6.2 ± 1.2 µM |
| CCN(CC)CCNc1ccc2ncn3c4ccc(OC)cc4c(=O)c1c23 [C-1330] | 13.7 ± 1.1 µM |
| Cc1ccc2c(c1)c(=O)c1c(NCCCN)ccc3nnn2c31 [IKE6, 5-[-(3′-Aminopropyl)amino]-8-methyl-6H-[1–3]-triazolo[4,5,l-de]acridin-6-one] | 10.9 ± 1.1 µM |
| COc1ccc2c(c1)c(=O)c1c(NCCCN)ccc3nnn2c31 [IKE5, 5-[-(3′-Aminopropyl)amino]-8-methoxy-6H-[1–3]-triazolo[4,5,l-de]acridin-6-one] | 7.7 ± 1.1 µM |
| CCN(CC)CCNc1ccc2ncn3c4ccc(O)cc4c(=O)c1c23 [C-1311] | 16.6 ± 1.3 µM |

Further lines, results first:

| IC50 | Structure (SMILES) |
| --- | --- |
| 15.2 ± 1.2 µM | Cc1ccc2c(c1)c(=O)c1c(NCCCNC(=O)[C@@H](N)CCCCN)ccc3nnn2c31 [IKE8, N′-{3-[(8-methyl-6-oxo-6H-[1,2,3]triazolo[4,5,1-de]acridin-5-yl)amino]propyl} lysinamide] |
| 13.4 ± 1.1 µM | COc1ccc2c(c1)c(=O)c1c(NCCCNC(=O)[C@@H](N)CCCCN)ccc3nnn2c31 [IKE7, N′-{3-[(8-methoxy-6-oxo-6H-[1,2,3]triazolo[4,5,1-de]acridin-5-yl)amino]propyl} lysinamide] |
| 14.9 ± 1.1 µM | Cc1ccc2c(c1)c(=O)c1c(NCCNC(=O)[C@@H](N)CCCCN)ccc3ncn2c31 [IKE11, N-{2-[(8-methyl-6-oxo-6H-imidazo[4,5,1-de]acridin-5-yl)amino]ethyl}lysinamide] |
| 15.5 ± 1.3 µM | Cc1ccc2c(c1)c(=O)c1c(NCCN)ccc3ncn2c31 [IKE10, 5-[(2-aminoethyl)amino]-8-methyl-6H-imidazo[4,5,1-de]acridin-6-one] |
| 14.7 ± 1.1 µM | COc1ccc2c(c1)c(=O)c1c(NCCNC(=O)[C@@H](N)CCCCN)ccc3ncn2c31 [IKE14, N-{2-[(8-methoxy-6-oxo-6H-imidazo[4,5,1-de]acridin-5-yl)amino]ethyl}lysinamide] |
| 10.9 ± 1.1 µM | NCCNc1ccc2ncn3c4ccc(O)cc4c(=O)c1c23 [IKE12, 5-[(2-aminoethyl)amino]-8-hydroxy-6H-imidazo[4,5,1-de]acridin-6-one] |
